Experimental findings from patent publication US20190358196A1, “PI 4-KINASE INHIBITOR AS A THERAPEUTIC FOR VIRAL HEPATITIS, CANCER, MALARIA. AUTOIMMUNE DISORDERS AND INFLAMMATION, AND A RADIOSENSITIZER AND IMMUNOSUPPRESSANT” (priority 2016, published 2019) are described below.

Data set [1] deals with cell culture-derived HCV (HCVcc).
Data set [2] addresses PI4Ka (Homo sapiens, UniProt P42356). Kind of data set: HotSpot lipid kinase inhibition assay.

Chain of PI4Ka (P42356 whole entry): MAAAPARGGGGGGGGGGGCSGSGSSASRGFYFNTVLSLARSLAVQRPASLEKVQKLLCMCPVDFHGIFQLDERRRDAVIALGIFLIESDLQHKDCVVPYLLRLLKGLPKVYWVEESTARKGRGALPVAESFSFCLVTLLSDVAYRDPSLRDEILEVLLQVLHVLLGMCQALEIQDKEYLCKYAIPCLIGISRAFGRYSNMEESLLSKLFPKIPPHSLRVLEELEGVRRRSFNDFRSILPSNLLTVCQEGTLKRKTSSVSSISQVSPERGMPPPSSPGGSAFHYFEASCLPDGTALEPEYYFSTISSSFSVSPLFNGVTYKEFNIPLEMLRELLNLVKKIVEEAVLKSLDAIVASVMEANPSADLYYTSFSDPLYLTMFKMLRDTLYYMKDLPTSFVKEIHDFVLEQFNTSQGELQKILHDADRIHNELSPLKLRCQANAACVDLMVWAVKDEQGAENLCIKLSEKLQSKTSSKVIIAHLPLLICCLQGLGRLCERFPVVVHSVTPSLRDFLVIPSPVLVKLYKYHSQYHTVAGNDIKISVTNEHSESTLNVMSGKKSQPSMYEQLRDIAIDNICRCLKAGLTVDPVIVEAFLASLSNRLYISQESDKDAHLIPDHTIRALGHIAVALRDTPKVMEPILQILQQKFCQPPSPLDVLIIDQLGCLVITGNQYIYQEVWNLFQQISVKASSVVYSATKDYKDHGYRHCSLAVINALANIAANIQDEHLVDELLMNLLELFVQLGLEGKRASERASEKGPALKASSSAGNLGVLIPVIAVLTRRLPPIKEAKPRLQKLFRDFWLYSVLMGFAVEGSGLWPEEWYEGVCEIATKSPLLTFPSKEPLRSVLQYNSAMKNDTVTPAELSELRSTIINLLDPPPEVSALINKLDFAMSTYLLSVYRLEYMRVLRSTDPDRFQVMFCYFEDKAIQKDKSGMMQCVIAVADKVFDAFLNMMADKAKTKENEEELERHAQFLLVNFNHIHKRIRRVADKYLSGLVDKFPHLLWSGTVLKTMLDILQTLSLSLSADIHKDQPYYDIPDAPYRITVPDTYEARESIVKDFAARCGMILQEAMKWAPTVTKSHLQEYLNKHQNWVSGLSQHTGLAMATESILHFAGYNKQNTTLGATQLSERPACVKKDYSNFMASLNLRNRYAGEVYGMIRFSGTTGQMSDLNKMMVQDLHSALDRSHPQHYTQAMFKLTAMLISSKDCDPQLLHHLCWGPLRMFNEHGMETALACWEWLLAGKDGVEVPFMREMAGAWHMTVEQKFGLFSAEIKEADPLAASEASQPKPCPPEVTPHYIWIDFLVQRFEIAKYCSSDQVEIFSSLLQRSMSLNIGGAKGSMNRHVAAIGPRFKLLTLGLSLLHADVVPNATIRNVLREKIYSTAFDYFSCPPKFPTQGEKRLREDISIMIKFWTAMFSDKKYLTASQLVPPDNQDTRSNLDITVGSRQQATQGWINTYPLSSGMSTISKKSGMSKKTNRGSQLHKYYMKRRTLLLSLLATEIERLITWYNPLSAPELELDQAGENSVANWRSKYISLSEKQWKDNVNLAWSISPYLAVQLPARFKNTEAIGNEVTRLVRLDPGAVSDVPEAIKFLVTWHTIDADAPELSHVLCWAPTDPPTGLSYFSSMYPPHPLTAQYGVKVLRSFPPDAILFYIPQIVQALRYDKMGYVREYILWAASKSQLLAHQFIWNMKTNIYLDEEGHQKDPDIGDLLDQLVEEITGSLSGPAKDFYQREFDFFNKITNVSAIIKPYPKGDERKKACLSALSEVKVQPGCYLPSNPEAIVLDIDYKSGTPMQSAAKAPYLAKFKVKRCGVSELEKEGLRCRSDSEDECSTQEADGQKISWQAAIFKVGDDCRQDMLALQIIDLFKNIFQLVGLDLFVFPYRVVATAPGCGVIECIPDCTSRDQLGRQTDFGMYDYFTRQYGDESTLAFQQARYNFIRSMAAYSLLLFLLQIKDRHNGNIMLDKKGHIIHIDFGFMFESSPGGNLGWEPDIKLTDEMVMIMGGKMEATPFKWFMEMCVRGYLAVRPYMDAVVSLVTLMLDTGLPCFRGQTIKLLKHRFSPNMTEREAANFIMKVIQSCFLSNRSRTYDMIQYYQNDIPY

Consider Human interferon alpha-2b [rIFNa-2b], for which the “SI (CC50/EC50)” value in data set [1] was above 15.9.
By IC50 is commonly meant the concentration needed to halve the response being measured. High values mean weaker potency in that assay, low ones greater potency in that assay. For `Oc1cccc(-c2nc(N3CCOCC3)c3oc4ncccc4c3n2)c1` [PI-103], half-maximal inhibition in data set [2] (IC50) was put at 322 nM.
